# Results reported in US11918582B2 (RAPT Therapeutics, Inc., priority 2021, dated 2024).
# Structures can show the parent of a compound that is named as a salt.
# Molecular target: T1, human HPK1 (MAP4K1) (Homo sapiens, UniProt Q92918)
# T1 construct: Recombinant human HPK1 kinase domain was obtained from ThermoFisher (Cat. #PV6357) and SignalChem (Cat. #M23-11G); purchased ThermoFisher; SignalChem PV6357; M23-11G
# T1 sequence (Q92918 17-274 limits assumed): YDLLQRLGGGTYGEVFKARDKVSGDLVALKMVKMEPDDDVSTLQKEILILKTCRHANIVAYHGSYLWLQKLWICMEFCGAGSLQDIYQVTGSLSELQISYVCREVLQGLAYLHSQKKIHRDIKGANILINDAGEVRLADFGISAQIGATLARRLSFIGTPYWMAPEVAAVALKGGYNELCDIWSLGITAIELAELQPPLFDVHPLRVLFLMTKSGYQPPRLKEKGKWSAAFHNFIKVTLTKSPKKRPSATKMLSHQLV
# Assay: Biochemical assay for activity against HPK1 (ADP-Glo, MBP substrate)
# Details: recombinant human HPK1 kinase domain, 1 nM enzyme, ADP-Glo luminescence
# Summary of the method: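 IC50s come from ADP-Glo luminescence after a 2 h room-temperature reaction phosphorylating MBP in the presence of ATP. Compound was first preincubated 15 min with 1 nM HPK1 kinase domain, human recombinant. Buffer: 50 mM HEPES pH 7.5, 150 mM NaCl, 3 mM TCEP, 10 mM MgCl2, 0.005% Tween-20, 0.01% BSA.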
row,SMILES,IC50 [nM]
1,"COc1cc2c(cc1Nc1ncc3cnn(C[C@@H]4[C@@H](C)[C@H](F)CN4C(C)=O)c3n1)CN(C)CC2 [Example 191, 1-((2S,3R,4S)-4-fluoro-2-((6-((6-methoxy-2-methyl-1,2,3,4-tetrahydroisoquinolin-7-yl)amino)-1H-pyrazolo[3,4-d]pyrimidin-1-yl)methyl)-3-methylpyrrolidin-1-yl)ethan-1-one]",< 100
2,"COc1cc2c(cc1Nc1ncc3cnn(C4CCC(F)(F)CC4)c3n1)CN(C)CC2 [Example 192, N-[1-(4,4-difluorocyclohexyl)pyrazolo[3,4-d]pyrimidin-6-yl]-6-methoxy-2-methyl-3,4-dihydro-1H-isoquinolin-7-amine Hydrochloride]",< 100
3,"COc1cc2c(cc1Nc1ncc3cnn(C[C@@H]4CCCN4C(C)=O)c3n1)CN(CCO)CC2 [Example 194, (S)-1-(2-((6-((2-(2-hydroxyethyl)-6-methoxy-1,2,3,4-tetrahydroisoquinolin-7-yl)amino)-1H-pyrazolo[3,4-d]pyrimidin-1-yl)methyl)pyrrolidin-1-yl)ethan-1-one]",< 100
4,"COc1cc2c(cc1Nc1ncc3cnn(C[C@@H]4CCCN4C(C)=O)c3n1)CN(C[C@@H](C)O)CC2 [Example 195, 1-((S)-2-((6-((2-((R)-2-hydroxypropyl)-6-methoxy-1,2,3,4-tetrahydroisoquinolin-7-yl)amino)-1H-pyrazolo[3,4-d]pyrimidin-1-yl)methyl)pyrrolidin-1-yl)ethan-1-one]",< 100
5,"COc1cc2c(cc1Nc1ncc3cnn(C[C@@H]4CCCN4C(C)=O)c3n1)CN(C(C)C)CC2 [Example 196, (S)-1-(2-((6-((2-isopropyl-6-methoxy-1,2,3,4-tetrahydroisoquinolin-7-yl)amino)-1H-pyrazolo[3,4-d]pyrimidin-1-yl)methyl)pyrrolidin-1-yl)ethan-1-one hydrochloride]",< 100
6,"COCCN1CCc2cc(OC)c(Nc3ncc4cnn(C[C@@H]5CCCN5C(C)=O)c4n3)cc2C1 [Example 197, (S)-1-(2-((6-((6-methoxy-2-(2-methoxyethyl)-1,2,3,4-tetrahydroisoquinolin-7-yl)amino)-1H-pyrazolo[3,4-d]pyrimidin-1-yl)methyl)pyrrolidin-1-yl)ethan-1-one Hydrochloride]",< 100
7,COc1nc2c(cc1Nc1ncc3cnn(C[C@@H]4CCCN4C(C)=O)c3n1)CN(C)CC2 [Example 198],< 100
8,"COc1cc2c(cc1Nc1ncc3cnn(C[C@H]4CC[C@H](O)CC4)c3n1)CN(C)CC2 [Example 199, (trans)-4-((6-((6-methoxy-2-methyl-1,2,3,4-tetrahydroisoquinolin-7-yl)amino)-1H-pyrazolo[3,4-d]pyrimidin-1-yl)methyl)cyclohexan-1-ol hydrochloride]",< 100
9,"COc1cc2c(cc1Nc1ncc3cnn(CC4(C)CC4)c3n1)CN(C)CC2 [Example 203, 6-methoxy-2-methyl-N-(1-((1-methylcyclopropyl)methyl)-1H-pyrazolo[3,4-d]pyrimidin-6-yl)-1,2,3,4-tetrahydroisoquinolin-7-amine]",< 100
10,"COc1cc2c(cc1Nc1ncc3cnn(CC4(F)CC4)c3n1)CN(C)CC2 [Example 204, N-(1-((1-fluorocyclopropyl)methyl)-1H-pyrazolo[3,4-d]pyrimidin-6-yl)-6-methoxy-2-methyl-1,2,3,4-tetrahydroisoquinolin-7-amine]",< 100
11,"COc1cc2c(cc1Nc1ncc3cnn(CC4CC4(F)F)c3n1)CN(C)CC2 (stereo not drawn) [Example 206, N-(1-((2,2-difluorocyclopropyl)methyl)-1H-pyrazolo[3,4-d]pyrimidin-6-yl)-6-methoxy-2-methyl-1,2,3,4-tetrahydroisoquinolin-7-amine]",< 100
12,"COc1cc2c(cc1Nc1ncc3cnn(C[C@@H]4CCCN4C(C)=O)c3n1)C(C(F)(F)F)N(C)CC2 (stereo partly drawn) [Example 208, 1-((2S)-2-((6-((6-methoxy-2-methyl-1-(trifluoromethyl)-1,2,3,4-tetrahydroisoquinolin-7-yl)amino)-1H-pyrazolo[3,4-d]pyrimidin-1-yl)methyl)pyrrolidin-1-yl)ethan-1-one]",< 100
13,"COc1cc2c(cc1Nc1ncc3cnn([C@@H]4CC[C@H]5CN(C(C)=O)[C@H]54)c3n1)CN(C)CC2 [Example 209, 1-((1S,4R,5R)-4-(6-((6-methoxy-2-methyl-1,2,3,4-tetrahydroisoquinolin-7-yl)amino)-1H-pyrazolo[3,4-d]pyrimidin-1-yl)-6-azabicyclo[3.2.0]heptan-6-yl)ethan-1-one]",< 100
14,"COc1cc2c(cc1Nc1ncc3cnn([C@H]4CCN(C(C)=O)C[C@H]4C)c3n1)CN(C)CC2 [Example 210, 1-((3R,4S)-4-(6-((6-methoxy-2-methyl-1,2,3,4-tetrahydroisoquinolin-7-yl)amino)-1H-pyrazolo[3,4-d]pyrimidin-1-yl)-3-methylpiperidin-1-yl)ethan-1-one]",< 100
15,"COc1cc2c(cc1Nc1ncc3cnn(C[C@H]4CCCCN4C(C)=O)c3n1)CN(C)CC2 [Example 211, 1-[(2R)-2-[[6-[(6-methoxy-2-methyl-3,4-dihydro-1H-isoquinolin-7-yl)amino]pyrazolo[3,4-d]pyrimidin-1-yl]methyl]-1-piperidyl]ethenone hydrochloride]",100 to 250
16,"COc1nc2c(cc1Nc1ncc3cnn(C[C@@H]4C[C@H](F)CN4C(C)=O)c3n1)CN(C)CC2 [Example 212, 1-[(2S,4S)-4-fluoro-2-[[6-[(2-methoxy-6-methyl-7,8-dihydro-5H-1,6-naphthyridin-3-yl)amino]pyrazolo[3,4-d]pyrimidin-1-yl]methyl]pyrrolidin-1-yl]ethenone]",< 100
17,"COc1cc2c(cc1Nc1ncc3cnn(C[C@@H]4[C@@H](F)CCN4C(C)=O)c3n1)CN(C)CC2 [Example 213, 1-[(2R,3S)-3-fluoro-2-[[6-[(6-methoxy-2-methyl-3,4-dihydro-1H-isoquinolin-7-yl)amino]pyrazolo[3,4-d]pyrimidin-1-yl]methyl]pyrrolidin-1-yl]ethanone]",< 100
18,"COc1cc2c(cc1Nc1ncc3cnn(C[C@@H]4C[C@H]5C[C@H]5N4C(C)=O)c3n1)CN(C)CC2 [Example 215, 1-[(1R,3S,5R)-3-[[6-[(6-methoxy-2-methyl-3,4-dihydro-1H-isoquinolin-7-yl)amino]pyrazolo[3,4-d]pyrimidin-1-yl]methyl]-2-azabicyclo[3.1.0]hexan-2-yl]ethanone]",< 100
19,"COc1cc2c(cc1Nc1ncc3cnn(C[C@@H]4C[C@@H]5C[C@@H]5N4C(C)=O)c3n1)CN(C)CC2 [Example 216, 1-[(1S,3S,5S)-3-[[6-[(6-methoxy-2-methyl-3,4-dihydro-1H-isoquinolin-7-yl)amino]pyrazolo[3,4-d]pyrimidin-1-yl]methyl]-2-azabicyclo[3.1.0]hexan-2-yl]ethanone]",< 100
20,"COc1cc2c(cc1Nc1ncc3cnn(C[C@@H]4CCCN4C(N)=O)c3n1)CN(C)CC2 [Example 217, (2S)-2-[[6-[(6-methoxy-2-methyl-3,4-dihydro-1H-isoquinolin-7-yl)amino]pyrazolo[3,4-d]pyrimidin-1-yl]methyl]pyrrolidine-1-carboxamide]",< 100
21,"COc1cc2c(cc1Nc1ncc3cnn(CC4CCCNC4=O)c3n1)CN(C)CC2 (stereo not drawn) [Example 218, 3-[[6-[(6-methoxy-2-methyl-3,4-dihydro-1H-isoquinolin-7-yl)amino]pyrazolo[3,4-d]pyrimidin-1-yl]methyl]piperidin-2-one]",< 100
